According to PMC5538626, “Structural and functional analysis of the GABARAP interaction motif (GIM)” (EMBO Reports, 2017):
Ends that are not written are not given here.

How the values were obtained:
[1] = biological target: LC3-subfamily of proteins; experiment: ITC, LC3-subfamily (range); format: binding, human
Procedure: (§1) All titration experiments were performed at 25°C using a VP‐ITC microcalorimeter (Malvern Instruments Ltd, UK). The ITC data were analysed with the ITC‐Origin 7.0 software with a “one‐site” binding model. The peptides at concentrations of 0.4 mM were titrated into 0.020 mM LC3 and GABARAP proteins in 26 steps. The protein and peptide concentrations were calculated from the UV absorption at 280 nm by NanoDrop spectrophotometer (Thermo Fisher Scientific, DE, USA).

[2] = biological target: T1, GABARAP R28K (Homo sapiens, UniProt O95166, R28K); experiment: ITC titration of PLEKHM1-LIR peptide into GABARAP R28K mutant; format: binding
T1 construct: modified Ub-leader (ubiquitin fusion leader) (N); made in house; host or cells: E. coli NEB T7 Express
T1 sequence (O95166 whole entry R28K, the tested form may be a part): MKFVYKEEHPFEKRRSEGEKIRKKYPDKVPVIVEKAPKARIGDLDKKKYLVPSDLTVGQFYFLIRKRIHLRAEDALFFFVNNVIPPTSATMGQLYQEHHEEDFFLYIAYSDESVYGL
Procedure: The chimeric constructs were expressed as a His‐tag fusion protein in E. coli BL21(DE3) cells. The cells were induced with 0.3 mM IPTG at OD600 0.6 for 16 h at 26°C. The cell pellets were lysed using mechanical sonication in lysis buffer (20 mM Tris–HCl pH 9.0, 100 mM NaCl, 10 mM imidazole, supplemented with 0.1% Triton X‐100). The proteins were purified using Ni‐NTA beads (GE Healthcare) and the His‐tag was cleaved using thrombin (Invitrogen) at room temperature for 16 h. The last step was gel filtration chromatography using a Superdex S200/300 GL column (GE Healthcare). The proteins were concentrated using spin concentrators (Vivaspin). For ITC and NMR studies, the non‐labelled and stable isotopes labelled LC3 and GABARAP proteins were obtained based on the protocols described elsewhere 30, 39. Here, E. coli NEB T7 Express culture transformed with corresponding plasmids were grown till OD600 nm = 1.0 and protein expression was induced with 0.2 mM IPTG. The cultures were incubated at 25°C for 8–12 h before cell harvesting. Isolation and purification procedures were similar to those reported in Ref. 22, 40. Before experiments, all proteins and peptides were equilibrated with a buffer containing 50 mM Na2HPO4, 100 mM NaCl at pH 7.0, and supplied with 5 mM protease inhibitor cocktail.
The protocol for preparation of non‐labelled and ^13C,^15N‐labelled PLEKHM1‐LIR peptide was slightly modified to achieve highest yield of the peptide. The 50 ml M9 culture was inoculated with NEB T7 cell transformed with pET39_Ub63‐PLEKHM1‐LIR plasmid and grown overnight at 37°. The collected cells were resuspended in 2 l of either LB or M9 media contained 1.5 g ^15N‐labelled NH4Cl and 3.0 g of ^13C‐labelled glucose. The cultures were grown at 37° till A(600 nm) = 0.9 and supplied with 1 mM of IPTG to induce Ub63‐PLEKHM1‐LIR overexpression (3 h at 37°). After that cells were harvested by centrifugation, re‐suspended in buffer contained 50 mM Tris–HCl pH = 7.9, 200 mM NaCl, 5% glycerol, 0.1 mg/ml DNase A and 4 mM protease inhibitor cocktail. After cell lysis by French press, debris was removed by centrifugation and clear supernatant was applied onto the column contained Ni‐NTA Sepharose equilibrated with the loading buffer (50 mM Tris–HCl pH = 7.9, 250 mM NaCl, 1% glycerol and 20 mM imidazole). Elution was performed with 400 mM imidazole in the same buffer. An aliquot of pure Ub63‐PLEKHM1‐LIR fractions was further purified by gel filtration on Superdex75 26 × 60 column for control ITC and analytical size exclusion chromatography experiments, remaining fusion protein was processed with the TEV‐protease and PLEKHM1‐LIR peptide was purified to 95% purity by reverse Ni‐NTA chromatography and followed gel filtration on Superdex75 26 × 60 column. Peak maximum of peptide was detected at […] (void volume 115 ml). Pure peptide was concentrated in Amicon concentrators with cut‐off of 3 kDa (> 95% retention).
as §1

GAMGPQQEDEWVNVQYPD [PLEKHM1‐LIR WT]
Kd [1]: 3.5 to 6.3 µM | -T*DS ([2]; 25°C, pH 7.0, GABARAP R28K): +2.00 kcal mol-1 | DG (ΔG) ([2]; 25°C, pH 7.0, GABARAP R28K): -8.55 kcal/mol | DH (ΔH) ([2]; 25°C, pH 7.0, GABARAP R28K): -10.55 ± 0.1 kcal/mol | DS (ΔS) ([2]; 25°C, pH 7.0, GABARAP R28K): -6.71 cal mol-1 K-1 | KA ([2]; 25°C, pH 7.0, GABARAP R28K): 1.9±0.1 *10^6 M-1 | N ([2]; 25°C, pH 7.0, GABARAP R28K): 1.05±0.01 | smaller favorable enthalpy vs wild type GABARAP ([2]; within experimental error): 0.05 kcal/mol
